Tests used:
Assay in all cases: relative viability (nuclei count vs DMSO), 5 days (fraction); higher = more cells survive
Vorinostat + OSI-027 = compound: O=C(CCCCCCC(=O)Nc1ccccc1)NO [Vorinostat] + COc1cccc2cc(-c3nc([C@H]4CC[C@H](C(=O)O)CC4)n4ncnc(N)c34)[nH]c12 [OSI-027] (partner 0.5 µM)
Summary of the method: (§1)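 Each reported value is a median over duplicate plates. It expresses relative viability: treated-well nuclei count divided by vehicle-well nuclei count. Lung cancer cell lines in 1536-well plates were dosed by pin tool a day after seeding, alone with one drug or with a fixed anchor-drug dose plus five library-drug doses (not always all listed) in √10 steps, and nuclei were counted after 5 days.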

Vorinostat + Alpelisib = compound: O=C(CCCCCCC(=O)Nc1ccccc1)NO [Vorinostat] + Cc1nc(NC(=O)N2CCC[C@H]2C(N)=O)sc1-c1ccnc(C(C)(C)C(F)(F)F)c1 [Alpelisib] (partner 2 µM)
Summary of the method: as §1

Vorinostat + Dasatinib = compound: O=C(CCCCCCC(=O)Nc1ccccc1)NO [Vorinostat] + Cc1nc(Nc2ncc(C(=O)Nc3c(C)cccc3Cl)s2)cc(N2CCN(CCO)CC2)n1 [Dasatinib] (partner 0.075 µM)
Summary of the method: as §1

Vorinostat + AZD7762 = compound: O=C(CCCCCCC(=O)Nc1ccccc1)NO [Vorinostat] + NC(=O)Nc1cc(-c2cccc(F)c2)sc1C(=O)N[C@H]1CCCNC1 [AZD7762] (partner 0.2 µM)
Summary of the method: as §1

Vorinostat + Crizotinib = compound: O=C(CCCCCCC(=O)Nc1ccccc1)NO [Vorinostat] + C[C@@H](Oc1cc(-c2cnn(C3CCNCC3)c2)cnc1N)c1c(Cl)ccc(F)c1Cl [Crizotinib] (partner 1 µM)
Summary of the method: as §1

Cell Line	relative viability (Vorinostat + OSI-027; first compound 0.253 µM)	relative viability (Vorinostat + OSI-027; first compound 0.8 µM)	relative viability (Vorinostat + OSI-027; first compound 2.53 µM)	relative viability (Vorinostat + OSI-027; first compound 8 µM)	relative viability (Vorinostat + Alpelisib; first compound 0.253 µM)	relative viability (Vorinostat + Alpelisib; first compound 0.8 µM)	relative viability (Vorinostat + Alpelisib; first compound 2.53 µM)	relative viability (Vorinostat + Alpelisib; first compound 8 µM)	relative viability (Vorinostat + Dasatinib; first compound 0.253 µM)	relative viability (Vorinostat + Dasatinib; first compound 0.8 µM)	relative viability (Vorinostat + Dasatinib; first compound 2.53 µM)	relative viability (Vorinostat + Dasatinib; first compound 8 µM)	relative viability (Vorinostat + AZD7762; first compound 0.253 µM)	relative viability (Vorinostat + AZD7762; first compound 0.8 µM)	relative viability (Vorinostat + AZD7762; first compound 2.53 µM)	relative viability (Vorinostat + AZD7762; first compound 8 µM)	relative viability (Vorinostat + Crizotinib; first compound 0.253 µM)	relative viability (Vorinostat + Crizotinib; first compound 0.8 µM)	relative viability (Vorinostat + Crizotinib; first compound 2.53 µM)	relative viability (Vorinostat + Crizotinib; first compound 8 µM)
HCC-827	0.923	0.853	0.743	0.259	1.08	1.04	0.634	0.197	0.299	0.334	0.382	0.314	0.181	0.321	0.215	0.178	0.97	0.964	0.581	0.174
HCC-78	0.346	0.32	0.224	0.234	0.346	0.208	0.114	0.099	0.371	0.398	0.211	0.2	0.451	0.464	0.223	0.199	0.319	0.229	0.117	0.137
201T	0.837	0.756	0.322	0.118	0.965	0.982	0.751	0.309	0.578	0.503	0.381	0.221	0.527	0.595	0.495	0.197	1.12	1.03	1.02	0.317
LK-2	0.196	0.169	0.117	0.103	1.07	0.847	0.234	0.125	0.36	0.188	0.114	0.123	0.334	0.373	0.126	0.0415	0.227	0.237	0.175	0.0931
NCI-H2342	0.607	0.649	0.524	0.386	–	–	–	–	0.304	0.315	0.274	0.28	0.431	0.575	0.347	0.254	–	–	–	–
HCC-366	0.979	0.432	0.146	0.0279	0.456	0.36	0.0363	0.0122	0.805	0.426	0.102	0.0346	0.459	0.195	0.0622	0.0231	0.217	0.1	0.0143	0.0124
HARA	0.64	0.213	0.155	0.0573	0.949	0.761	0.174	0.0907	0.311	0.238	0.18	0.0565	0.2	0.245	0.146	0.125	1.15	0.932	0.136	0.0954
COR-L 105	0.839	0.601	0.319	0.182	1.37	0.783	0.249	0.184	0.377	0.394	0.259	0.196	–	–	–	–	0.65	0.383	0.221	0.199
NCI-H460	0.821	0.484	0.0397	0.0148	0.609	0.351	0.0248	0.0089	0.577	0.423	0.134	0.0239	0.348	0.446	0.0499	0.0349	1.05	0.336	0.0241	0.0093
HCC-44	0.611	0.281	0.103	0.254	0.896	0.587	0.186	0.0876	–	–	–	–	1.01	1.02	0.879	0.526	0.728	0.783	0.224	0.0957
NCI-H1563	0.787	0.692	0.577	0.549	0.93	0.8	0.642	0.555	0.411	0.458	0.448	0.385	–	–	–	–	0.796	0.824	0.469	0.492
NCI-H1650	0.581	0.36	0.167	0.145	–	–	–	–	0.397	0.292	0.201	0.141	–	–	–	–	0.848	0.519	0.29	0.101
NCI-H727	0.682	0.574	0.477	0.393	0.536	0.68	0.303	0.203	0.486	0.423	0.262	0.206	0.514	0.874	0.617	0.398	0.962	0.687	0.299	0.214
COR-L23	0.842	0.396	0.151	0.0835	0.834	0.372	0.0994	0.0715	0.501	0.291	0.0778	0.0572	–	–	–	–	0.542	0.25	0.0669	0.0606
NCI-H522	0.8	0.617	0.591	0.247	–	–	–	–	0.895	0.99	0.344	0.239	0.987	1.05	0.834	0.235	–	–	–	–
NCI-H596	0.843	0.36	0.637	0.293	0.871	0.482	0.278	0.248	0.634	0.448	0.385	0.202	1.13	0.732	0.543	0.384	1.05	0.945	0.517	0.31
NCI-H1993	0.53	0.63	0.568	0.525	0.737	0.691	0.562	0.522	0.655	0.626	0.544	0.41	0.817	0.672	0.384	0.312	0.836	0.932	0.531	0.653
NCI-H2023	0.473	0.359	0.134	0.0617	0.623	0.509	0.292	0.0757	0.872	0.49	0.134	0.061	–	–	–	–	0.716	0.525	0.188	0.0669
NCI-H3122	1.26	1.1	0.135	0.129	0.768	0.811	0.393	0.208	1.11	0.69	0.0421	0.0399	1.17	1.06	0.246	0.0864	0.311	0.317	0.227	0.198

Cell Line	relative viability (Vorinostat + OSI-027; first compound 0.253 µM)	relative viability (Vorinostat + OSI-027; first compound 0.8 µM)	relative viability (Vorinostat + OSI-027; first compound 2.53 µM)	relative viability (Vorinostat + OSI-027; first compound 8 µM)	relative viability (Vorinostat + Alpelisib; first compound 0.253 µM)	relative viability (Vorinostat + Alpelisib; first compound 0.8 µM)	relative viability (Vorinostat + Alpelisib; first compound 2.53 µM)	relative viability (Vorinostat + Alpelisib; first compound 8 µM)	relative viability (Vorinostat + Dasatinib; first compound 0.253 µM)	relative viability (Vorinostat + Dasatinib; first compound 0.8 µM)	relative viability (Vorinostat + Dasatinib; first compound 2.53 µM)	relative viability (Vorinostat + Dasatinib; first compound 8 µM)	relative viability (Vorinostat + AZD7762; first compound 0.253 µM)	relative viability (Vorinostat + AZD7762; first compound 0.8 µM)	relative viability (Vorinostat + AZD7762; first compound 2.53 µM)	relative viability (Vorinostat + AZD7762; first compound 8 µM)	relative viability (Vorinostat + Crizotinib; first compound 0.253 µM)	relative viability (Vorinostat + Crizotinib; first compound 0.8 µM)	relative viability (Vorinostat + Crizotinib; first compound 2.53 µM)	relative viability (Vorinostat + Crizotinib; first compound 8 µM)
NCI-H441	0.705	0.576	0.229	0.194	0.754	0.616	0.289	0.11	0.846	0.557	0.285	0.138	1.21	0.903	0.238	0.122	0.722	0.776	0.141	0.11
SW 1573	1.1	0.633	0.183	0.051	1.03	0.901	0.587	0.147	0.593	0.789	0.112	0.0513	–	–	–	–	0.845	0.665	0.297	0.156
RERF-LC-KJ	0.56	0.52	0.238	0.256	0.862	0.898	0.457	0.234	0.817	0.543	0.212	0.24	1.06	0.977	0.379	0.211	0.813	0.744	0.448	0.156
NCI-H838	0.531	0.508	0.298	0.137	1.23	1.1	0.605	0.185	0.378	0.442	0.368	0.186	0.998	1	0.628	0.609	0.986	0.76	0.241	0.105
HCC-15	0.698	0.487	0.269	0.0848	0.93	0.864	0.468	0.0971	0.748	0.589	0.225	0.06	1.39	1.11	1.06	0.363	0.919	0.879	0.496	0.0884
SK-LU-1	0.407	0.377	0.204	0.116	1.14	0.721	0.488	0.178	0.192	0.208	0.133	0.0924	–	–	–	–	0.921	0.672	0.43	0.164
NCI-H1666	0.772	0.678	0.383	0.335	0.962	0.586	0.245	0.156	0.881	0.698	0.422	0.266	0.778	0.826	0.461	0.322	0.788	0.713	0.244	0.22
SK-MES-1	0.72	0.664	0.199	0.149	0.948	0.904	0.437	0.144	0.566	0.657	0.197	0.148	–	–	–	–	1.13	1.06	0.495	0.157
NCI-H2228	0.767	0.452	0.203	0.0986	0.945	0.461	0.184	0.113	0.39	0.323	0.127	0.0817	–	–	–	–	0.593	0.502	0.246	0.168
UMC-11	0.441	0.263	0.135	0.0952	1.02	0.852	0.221	0.0659	0.423	0.258	0.121	0.0971	–	–	–	–	0.578	0.481	0.0587	0.0369
NCI-H661	0.79	0.665	0.297	0.245	1.23	1.09	0.491	0.171	1.11	0.791	0.247	0.223	–	–	–	–	1.01	1.03	0.483	0.327
NCI-H1793	0.328	0.32	0.302	0.151	0.905	0.96	0.519	0.251	0.491	0.433	0.351	0.135	0.188	0.492	0.204	0.131	–	–	–	–
NCI-H1395	0.647	0.597	0.418	0.352	1.48	1.09	0.57	0.373	0.395	0.434	0.365	0.344	0.37	0.373	0.375	0.296	–	–	–	–
A549	–	–	–	–	0.861	0.802	0.104	0.0282	–	–	–	–	–	–	–	–	0.528	0.107	0.054	0.0379
NCI-H1703	–	–	–	–	0.469	0.525	0.594	0.156	–	–	–	–	0.126	–	0.189	0.0985	0.977	0.716	0.298	0.113
NCI-H520	0.361	0.265	0.204	0.217	1.02	0.588	0.487	0.139	0.219	0.206	0.179	0.17	–	–	–	–	0.796	0.482	0.133	0.108
ChaGo-K-1	0.553	0.484	0.319	0.176	–	–	–	–	0.656	0.568	0.444	0.246	0.862	0.867	0.567	0.173	1.23	0.98	0.408	0.261
IA-LM	–	–	–	–	0.769	0.512	0.224	0.0622	–	–	–	–	–	–	–	–	0.751	0.743	0.152	0.0423
NCI-H2009	0.793	0.795	0.254	0.0901	1.24	1	0.633	0.187	0.466	0.454	0.168	0.082	–	–	–	–	0.992	0.983	0.457	0.0597
